{"source": "patent EP2386300A1", "about": "“Use of dronedarone for the preparation of a medicament for use in the prevention of cardiovascular hospitalization or of mortality in patients having a first recurrence of atrial fibrillation or atrial flutter” (SANOFI, priority 2010, dated 2011)", "system": "patients having a history of atrial fibrillation or atrial flutter", "assay": "Prospective, multinational, multicentre, double-blind, placebo-controlled clinical study (ATHENA); analysis restarting the clock at first AF/AFL recurrence", "assay_type": "in vivo", "description": "More particularly, the effects of dronedarone compared with placebo on cardiovascular (CV) end points were evaluated by restarting the clock at the time of first atrial fibrillation or atrial flutter recurrence detected in a scheduled ECG or requiring cardioversion.\nThe patients had to have a history of atrial fibrillation or flutter and/or could be in normal sinus rhythm or in atrial fibrillation or flutter at inclusion.\nThe patient recruitment was carried out by taking into account the following inclusion criteria:\n• 1) One of the following risk factors had to be present: • age equal to or greater than 70 years, • hypertension (taking antihypertensives of at least two different classes), • diabetes, • history of cerebral stroke (transient ischemic event or completed cerebral stroke) or of systemic embolism, • left atrial diameter greater than or equal to 50 mm measured by echocardiography, • left ventricular ejection fraction less than 40%, measured by two-dimensional echography; or • age equal to or above 70, or even above 75, possibly combined with at least one of the risk factors below: • o hypertension (taking antihypertensives of at least two different classes), • o diabetes, • o history of cerebral stroke (transient ischemic event or completed cerebral stroke) or of systemic embolism, • o left atrial diameter greater than or equal to 50 mm measured by echocardiography, • o left ventricular ejection fraction less than 40%, measured by two-dimensional echography; • 2) availability of an electrocardiogram carried out during the past 6 months in order to document the presence or the history of atrial fibrillation or flutter; • 3) availability of an electrocardiogram carried out during the past 6 months in order to document the presence or absence of normal sinus rhythm.\n• Patients in permanent atrial fibrillation • Patients in unstable hemodynamic condition such as acute pulmonary edema within 12 hours prior to start of study medication; cardiogenic shock; treatment with IV pressor agents; patients on respirator; congestive heart failure of stage NYHA IV within the last 4 weeks; uncorrected, hemodynamically significant primary obstructive valvular disease; hemodynamically significant obstructive cardomyopathy; a cardiac operation or revascularization procedure within 4 weeks preceding randomization • Planned major non-cardiac or cardiac surgery or procedures including surgery for valvular heart disease, coronary artery bypass graft (CABG), percutaneous coronary intervention (PCI), or on urgent cardiac transplantation list • Acute myocarditis or constrictive pericarditis • Bradycardia < 50 bpm and/or PR-interval ≥ 0.28 sec on the last 12-lead ECG. • Significant sinus node disease (documented pause of 3 seconds or more) or 2nd or 3rd degree atrioventricular block (AV-block) unless treated with a pacemaker.\n• Plasma potassium < 3.5 mmol/I (as anti-arrhythmic drugs can be arrhythmogenic in patients with hypokalemia, this must be corrected prior to randomization. • A calculated GFR at baseline < 10 ml/min using the Cockroft Gault formula (GFR [ml/min] = (140 - AGE [years] * WEIGHT [kilograms] * CONSTANT / CREATININE [µmol/L], where CONSTANT is 1 for men and 0.85 for women )^i\nTreatment was initiated using tablets containing either the placebo or an amount of dronedarone hydrochloride corresponding to 400 mg of dronedarone at a rate of twice a day with the morning and evening meal and more specifically at a rate of one tablet in the morning during or shortly after breakfast and one tablet in the evening during or shortly after dinner.\nThe anticipated duration of the treatment was variable according to the time at which each patient was included in the study, and could range from a minimum of 12 months for the last patient included up to a maximum corresponding to the entire duration of the study (12 months + duration of inclusion), i.e. approximately 30 months for the first patients included.", "key": {"[1]": {"conditions": "1 - relative risk, versus placebo, after first AF/AFL recurrence"}}, "note": "Structures can show the parent of a compound that is named as a salt."}
{"smiles": "CCCCc1oc2ccc(NS(C)(=O)=O)cc2c1C(=O)c1ccc(OCCCN(CCCC)CCCC)cc1", "note": "[dronedarone hydrochloride]", "values": [{"measurement": "reduction in cardiovascular hospitalizations", "setting": "[1]", "result": 23, "unit": "%"}, {"measurement": "reduction in cardiovascular hospitalizations or deaths", "setting": "[1]", "result": 24, "unit": "%"}, {"measurement": "reduction in cardiovascular mortality", "setting": "[1]", "result": 47, "unit": "%"}, {"measurement": "reduction of death", "setting": "[1]", "result": 44, "unit": "%"}, {"measurement": "cardiovascular deaths", "setting": "673 treated patients with a first AF/AFL recurrence, placebo 35", "result": 15, "unit": "cardiovascular deaths"}, {"measurement": "deaths (mortality from any cause)", "setting": "673 treated patients with a first AF/AFL recurrence, placebo 51 deaths", "result": 23, "unit": "deaths"}, {"measurement": "events, cardiovascular hospitalizations", "setting": "673 treated patients with a first AF/AFL recurrence, placebo 288 events", "result": 195, "unit": "events"}, {"measurement": "events, cardiovascular hospitalizations or mortality (principal judgement criterion)", "setting": "673 treated patients with a first AF/AFL recurrence, placebo 306 events", "result": 205, "unit": "events"}, {"measurement": "relative risk, cardiovascular hospitalizations or deaths", "setting": "versus placebo, Cox model, after first AF/AFL recurrence, p = 0.0025", "result": 0.76}, {"measurement": "relative risk, cardiovascular hospitalizations", "setting": "versus placebo, Cox model, after first AF/AFL recurrence, p = 0.0048", "result": 0.77}, {"measurement": "relative risk, death from any cause", "setting": "versus placebo, Cox model, after first AF/AFL recurrence, p = 0.018", "result": 0.56}, {"measurement": "relative risk, cardiovascular mortality", "setting": "versus placebo, Cox model, after first AF/AFL recurrence, p = 0.0342", "result": 0.53}]}
{"smiles": "CCCCc1oc2ccc(NS(C)(=O)=O)cc2c1C(=O)c1ccc(OCCCN(CCCC)CCCC)cc1", "note": "[dronedarone, 2-n-Butyl-3-[4-(3-di-n-butylaminopropoxy)benzoyl]-5-methylsulphonamidobenzofuran]", "values": [{"measurement": "primary composite end point occurred in patients", "setting": "after a first AF recurrence, CV hospitalization or all-cause mortality, placebo 306", "result": 205, "unit": "patients"}, {"measurement": "primary composite end point occurred in patients (%)", "setting": "after a first AF recurrence, placebo 38.6%", "result": 30.5, "unit": "%"}, {"measurement": "patients hospitalized for worsening heart failure (including pulmonary edema or dyspnea of cardiac origin)", "setting": "after first AF/AFL recurrence, placebo 5.0%", "result": 3.6, "unit": "%"}, {"measurement": "patients hospitalized for AF", "setting": "after first AF/AFL recurrence, placebo 21.2%", "result": 15.8, "unit": "%"}, {"measurement": "total time spent in hospital", "setting": "all patients with a first AF/AFL recurrence, placebo 1789 nights, P < 0.01", "result": 1273, "unit": "nights"}, {"measurement": "percentage of hospitalization time spent in intensive care units", "setting": "compared with the placebo group, P = 0.01, Figure 3", "result": "lower"}, {"measurement": "first AF recurrence", "setting": "percentage of patients with a first AF recurrence, placebo 34.1%", "result": 29.3, "unit": "%"}]}
